From patent US9346818B2 (priority 2012, dated 2016)
Entries after “also recorded” stand apart in the source; their conditions may differ. Where a name gives a salt, the structure may show the parent alone. Read-outs that look alike come from different tables or passages of the source.

Tests used:
acetylcholinesterase = acetylcholinesterase (Homo sapiens (Human), UniProt P22303); assay: biochemical; format: biochemical; conditions: for potency on acetylcholinesterase compared with positive control drug donepezil hydrochloride: enzymology level
[1] = test system: learning and memory disorder of mice induced by scopolamine; assay: Morris water maze test, senile dementia mice model induced by scopolamine; format: in vivo; conditions: for effect on learning and memory disorder of mice induced by scopolamine: Morris water maze, in comparison with model group / donepezil hydrochloride group; for latent period day 1 / latent period day 2 / latent period day 3 / latent period day 4 / latent period day 5 / times of crossing platform: scopolamine 1 mg/kg
[2] = test system: learning and memory disorder induced by intracerebroventricular injection of Aβ1-42; assay: Morris water maze test, rats with intracerebroventricular injection of Aβ1-42; format: in vivo; conditions: Aβ1-42 rats
Procedure: The model of learning and memory disorder induced after intracerebroventricular injection of Aβ1-42 is the most common animal model for evaluating whether a compound has the effect of improving the learning and memory. […] Morris water maze test and the model of learning and memory disorder induced by intracerebroventricular injection of Aβ1-42 were employed in the present research, and the improvement effects of I-33 on learning and memory of rats at various concentration (0.7 mg/Kg, 3.5 mg/Kg, and 7 mg/Kg) were evaluated.
SD, male (220±20 g), the animals were fed in light: dark cycle (12 h/12 h) in a cleaning level of animal room, ad lib. The tests were performed after 3 days acclimation in the animal room. Aβ1-42 was formulated to 2 μg/μl according to the instruction of specification.
(1) Normal group: intracerebroventricular injection of physiological saline
(2) Model group with intracerebroventricular injection of Aβ1-42: intracerebroventricular injection of Aβ1-42
(4) I-33 (low concentration group): I-33 (0.7 mg/Kg)+intracerebroventricular injection of Aβ1-42
(5) I-33 (medium concentration group): I-33 (3.5 mg/Kg)+intracerebroventricular injection of Aβ1-42
(6) I-33 (high concentration group): I-33 (7 mg/Kg)+intracerebroventricular injection of Aβ1-42
Each rat in normal control group received intracerebroventricular injection of 5 μl of physiological saline, each rat in the other groups received intracerebroventricular injection of 5 μl of Aβ1-42. After the operation, the rats received the following tests after 1 week recovery period. […] The drugs were administered for 8 days, the training for water maze test was started on the 5th day, and the water maze test was formally started on the 9th day.

malonaldehyde (MDA) = assay: Biochemical indicators of brain tissues (MDA assay) in scopolamine mice; format: in vivo; conditions: 5 mg/kg; for MDA(nmol/mgprot): brain tissue homogenate
Procedure: After the behavior test was complete, the mice were sacrificed, brain tissues were collected (operated on an ice plate) and prepared into 10% of tissue homogenate with pre-cooled physiological saline, centrifuged (3000 rpm, 10 min), and the supernatant was subjected to malonaldehyde (MDA) assay following the kits.

[3] = modified Ellman method, read-out: IC50 (nM), inhibition activity on acetylcholinesterase
[4] = DPH 3 mg/Kg, I-33 all dosages tested
[5] = read-out: IC50 (nM), inhibition activity on acetylcholinesterase

Sequence of acetylcholinesterase (P22303 32-614, species assumed): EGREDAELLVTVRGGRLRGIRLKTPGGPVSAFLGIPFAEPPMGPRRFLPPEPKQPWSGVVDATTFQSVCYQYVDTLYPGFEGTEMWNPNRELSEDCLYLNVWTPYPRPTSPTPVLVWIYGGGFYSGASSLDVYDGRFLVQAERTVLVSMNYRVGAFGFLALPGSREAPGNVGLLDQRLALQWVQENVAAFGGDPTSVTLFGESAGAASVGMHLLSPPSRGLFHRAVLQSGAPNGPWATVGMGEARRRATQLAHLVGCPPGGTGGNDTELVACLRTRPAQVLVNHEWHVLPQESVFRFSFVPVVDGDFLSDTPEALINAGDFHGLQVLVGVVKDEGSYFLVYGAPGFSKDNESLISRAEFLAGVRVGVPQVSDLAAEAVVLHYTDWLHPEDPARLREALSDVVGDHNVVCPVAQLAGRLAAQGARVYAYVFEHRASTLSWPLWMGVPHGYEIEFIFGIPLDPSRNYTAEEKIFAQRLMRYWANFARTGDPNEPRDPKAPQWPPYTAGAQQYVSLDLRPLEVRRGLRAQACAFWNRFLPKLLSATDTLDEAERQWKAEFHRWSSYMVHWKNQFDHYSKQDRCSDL

## O=C1c2cc3c(cc2C2(CC2)N1CCC1CCN(Cc2cccc(F)c2)CC1)OCO3 [Compound I-19, 6-[2-[1-[(3-fluorophenyl)methyl]-4-piperidyl]ethyl]spiro[[1,3]dioxolo[4,5-f]isoindole-7,1′-cyclopropane]-5-one]
acetylcholinesterase; in vitro
  potency on acetylcholinesterase compared with positive control drug donepezil hydrochloride: even lower
acetylcholinesterase; [3]
  IC50: 376 nM
[1]
  effect on learning and memory disorder of mice induced by scopolamine: can improve the learning and memory disorder of the animals induced by scopolamine
[1]; Table 2, 5 mg/kg intragastric
  latent period day 1: 60 ± 0 s
  latent period day 2: 60 ± 0 s
  latent period day 3: 55.2 ± 11.8 s
  latent period day 4: 57.3 ± 10.4 s
  latent period day 5: 53.9 ± 12.4 s
  times of crossing platform: 0.8 ± 1.4

## COc1cc2c(cc1OC)C(=O)C(CC1CCN(Cc3ccccc3)CC1)C2 (stereo not shown) [DPH, donepezil hydrochloride, reference compound]
[2]; 3 mg/Kg intragastric, 8 days
  The period of reaching the platform for the first time (latent period): 23.94 ± 4.84
  times of crossing platform: 3.22 ± 0.55
[2]; [4]
  effect on period required for reaching the platform for the first time (latent period): significantly shorten the period required for reaching the platform for the first time
  effect on times of crossing the platform: significantly increases the times of crossing the platform

## O=C1c2cc3c(cc2C(=O)N1CCC1CCN(Cc2cccc(F)c2)CC1)OCO3 [Compound I-3, 6-[2-[1-[(3-fluorophenyl)methyl]-4-piperidyl]ethyl]-[1,3]dioxolo[4,5-f]isoindole-5,7-dione]
acetylcholinesterase; in vitro
  potency on acetylcholinesterase compared with positive control drug donepezil hydrochloride: slightly lower potency than the positive control drug
acetylcholinesterase; [3]
  IC50: 269 nM
[1]
  effect on learning and memory disorder of mice induced by scopolamine: decreases significantly
[1]; Table 3, 5 mg/kg intragastric
  latent period day 1: 56.5 ± 8.5 s
  latent period day 2: 56.5 ± 8.6 s
  latent period day 3: 60 ± 0 s
  latent period day 4: 43.9 ± 15.4 s
  latent period day 5: 34.0 ± 19.5 s
  times of crossing platform: 1.9 ± 1.5
[1]; Table 3, 10 mg/kg intragastric
  latent period day 1: 59.3 ± 2.6 s
  latent period day 2: 56.3 ± 9.7 s
  latent period day 3: 55.5 ± 9.5 s
  latent period day 4: 49.4 ± 15.7 s
  latent period day 5: 45.0 ± 15.0 s
  times of crossing platform: 1.1 ± 1.1

## O=C1c2cc3c(cc2C2(CC2)N1CCC1CCN(Cc2ccccc2F)CC1)OCO3 [Compound I-18, 6-[2-[1-[(2-fluorophenyl)methyl]-4-piperidyl]ethyl]spiro[[1,3]dioxolo[4,5-f]isoindole-7,1′-cyclopropane]-5-one]
acetylcholinesterase; in vitro
  potency on acetylcholinesterase compared with positive control drug donepezil hydrochloride: slightly lower potency than the positive control drug
acetylcholinesterase; [3]
  IC50: 154 nM
[1]
  effect on learning and memory disorder of mice induced by scopolamine: can improve the learning and memory disorder of the animals induced by scopolamine
[1]; Table 2, 5 mg/kg intragastric
  latent period day 1: 60 ± 0 s
  latent period day 2: 60 ± 0 s
  latent period day 3: 53.1 ± 10.4 s
  latent period day 4: 56.9 ± 8.2 s
  latent period day 5: 56.8 ± 8.6 s
  times of crossing platform: 0.5 ± 0.6
[1]; Table 3, 5 mg/kg intragastric
  latent period day 1: 55.0 ± 10.3 s
  latent period day 2: 55.9 ± 9.0 s
  latent period day 3: 60 ± 0 s
  latent period day 4: 51.8 ± 15.6 s
  latent period day 5: 35.6 ± 15.4 s
  times of crossing platform: 1.5 ± 1.7
[1]; Table 3, 10 mg/kg intragastric
  latent period day 1: 56.0 ± 9.9 s
  latent period day 2: 52.4 ± 12.4 s
  latent period day 3: 60 ± 0 s
  latent period day 4: 48.8 ± 15.4 s
  latent period day 5: 49.2 ± 15.9 s
  times of crossing platform: 1.5 ± 1.2

## CC1(C)c2cc3c(cc2C(=O)N1CCC1CCN(Cc2ccccc2F)CC1)OCO3 [Compound I-14, 6-[2-[1-[(2-fluorophenyl)methyl]-4-piperidyl]ethyl]-7,7-dimethyl-[1,3]dioxolo[4,5-f]isoindol-5-one]
acetylcholinesterase; in vitro
  potency on acetylcholinesterase compared with positive control drug donepezil hydrochloride: relative low activity
acetylcholinesterase; [5]
  IC50: > 2000 nM
Malonaldehyde (MDA)
  MDA(nmol/mgprot): 7.36 ± 1.3 nmol/mgprot
[1]; Table 4, 5 mg/kg intragastric
  latent period day 1: 57.1 ± 7.6 s
  latent period day 2: 60 ± 0 s
  latent period day 3: 60 ± 0 s
  latent period day 4: 54.2 ± 8.9 s
  latent period day 5: 49.9 ± 14.7 s
  times of crossing platform: 1.3 ± 1.8

## CC1(C)c2cc3c(cc2C(=O)N1CCC1CCN(Cc2cccc(F)c2)CC1)OCO3 [Compound I-15, 6-[2-[1-[(3-fluorophenyl)methyl]-4-piperidyl]ethyl]-7,7-dimethyl-[1,3]dioxolo[4,5-f]isoindol-5-one]
acetylcholinesterase; in vitro
  potency on acetylcholinesterase compared with positive control drug donepezil hydrochloride: relative low activity
acetylcholinesterase; [3]
  IC50: > 2000 nM
Malonaldehyde (MDA)
  MDA(nmol/mgprot): 7.41 ± 2.1 nmol/mgprot
[1]; Table 4, 5 mg/kg intragastric
  latent period day 1: 60 ± 0 s
  latent period day 2: 58.9 ± 4.4 s
  latent period day 3: 56.5 ± 8.3 s
  latent period day 4: 57.8 ± 5.3 s
  latent period day 5: 51.1 ± 10.9 s
  times of crossing platform: 1.9 ± 1.5

## O=C1c2cc3c(cc2C2(CC2)N1CCC1CCN(Cc2ccccn2)CC1)OCO3 [Compound I-29, 6-[2-[1-(2-pyridylmethyl)-4-piperidyl]ethyl]spiro[[1,3]dioxolo[4,5-f]isoindole-7,1′-cyclopropane]-5-one]
acetylcholinesterase; in vitro
  inhibition activity on acetylcholinesterase in vitro relative to donepezil hydrochloride: about 10%
  potency on acetylcholinesterase compared with positive control drug donepezil hydrochloride: even lower
acetylcholinesterase; [5]
  IC50: 903 nM
Malonaldehyde (MDA)
  content of MDA in brains / antioxidation effect: significant antioxidation effect
  MDA(nmol/mgprot): 6.66 ± 1.75 nmol/mgprot
[1]
  effect on learning and memory disorder of mice induced by scopolamine: stronger effects of improving learning and memory
[1]; Table 4, 5 mg/kg intragastric
  latent period day 1: 59.3 ± 2.7 s
  latent period day 2: 54.6 ± 12.5 s
  latent period day 3: 48.0 ± 15.8 s
  latent period day 4: 46.0 ± 16.3 s
  latent period day 5: 40.4 ± 21.6 s
  times of crossing platform: 1.5 ± 1.4

## O=C1c2cc3c(cc2CN1CCC1CCN(Cc2cccc(F)c2)CC1)OCO3 [Compound I-7, 6-[2-[1-[(3-fluorophenyl)methyl]-4-piperidyl]ethyl]-5H-[1,3]dioxolo[4,5-f]isoindol-7-one]
acetylcholinesterase; in vitro
  potency on acetylcholinesterase compared with positive control drug donepezil hydrochloride: even lower
acetylcholinesterase; [3]
  IC50: 486 nM

## O=C1c2cc3c(cc2C(=O)N1CCC1CCN(Cc2ccc(F)cc2)CC1)OCO3 [Compound I-4, 6-[2-[1-[(4-fluorophenyl)methyl]-4-piperidyl]ethyl]-[1,3]dioxolo[4,5-f]isoindole-5,7-dione]
acetylcholinesterase; in vitro
  potency on acetylcholinesterase compared with positive control drug donepezil hydrochloride: slightly lower potency than the positive control drug; also recorded: comparable inhibition activity on acetylcholinesterase with donepezil hydrochloride
acetylcholinesterase; [3]
  IC50: 167 nM

## O=C1c2cc3c(cc2C(=O)N1CCC1CCN(Cc2cccnn2)CC1)OCO3 [Compound I-37, 6-[2-[1-(pyridazin-3-ylmethyl)-4-piperidyl]ethyl]-[1,3]dioxolo[4,5-f]isoindole-5,7-dione]
acetylcholinesterase; in vitro
  potency on acetylcholinesterase compared with positive control drug donepezil hydrochloride: even lower
acetylcholinesterase; [3]
  IC50: 905 nM

## O=C1c2cc3c(cc2C2(CC2)N1CCC1CCN(Cc2ccccc2)CC1)OCO3 [Compound I-17, 6-[2-(1-benzyl-4-piperidyl)ethyl]spiro[[1,3]dioxolo[4,5-f]isoindole-7,1′-cyclopropane]-5-one]
acetylcholinesterase; IC50 (nM), inhibition activity on acetylcholinesterase, modified Ellman method
  IC50: 202 nM
acetylcholinesterase; in vitro
  potency on acetylcholinesterase compared with positive control drug donepezil hydrochloride: slightly lower potency than the positive control drug; also recorded: comparable inhibition activity on acetylcholinesterase with donepezil hydrochloride
[1]
  effect on learning and memory disorder of mice induced by scopolamine: superior to the donepezil hydrochloride group; also recorded: had the effect of improving the learning and memory disorder of mice induced by scopolamine; also recorded: stronger effects of improving learning and memory
[1]; Table 2, 5 mg/kg intragastric
  latent period day 1: 56.8 ± 8.6 s
  latent period day 2: 60 ± 0 s
  latent period day 3: 48.7 ± 15.7 s
  latent period day 4: 56.7 ± 8.1 s
  latent period day 5: 47.2 ± 13.4 s
  times of crossing platform: 1.8 ± 2.5
[1]; Table 6, 5 mg/kg intragastric
  latent period day 1: 57.3 ± 6.7 s
  latent period day 2: 56.3 ± 9.1 s
  latent period day 3: 52.5 ± 10.4 s
  latent period day 4: 46.4 ± 16.6 s
  latent period day 5: 43.7 ± 11.8 s
  times of crossing platform: 2.00 ± 1.41
[1]; Table 6, 10 mg/kg intragastric
  latent period day 1: 59.9 ± 0.3 s
  latent period day 2: 58.1 ± 6.2 s
  latent period day 3: 51.1 ± 12.0 s
  latent period day 4: 42.1 ± 15.5 s
  latent period day 5: 39.3 ± 16.7 s
  times of crossing platform: 2.60 ± 1.96
